In patent EP0598515A1, “Method for herbicidal activity-enhancing, activity-enhanced herbicidal composition and activity-enhancing composition” (ISHIHARA SANGYO KAISHA LTD., priority 1992, dated 1994):
Where “and” joins values, the source holds several entries; their conditions need not be identical. Identical values can stand only once. Like-named read-outs stand apart in the source and are kept apart here.

Tests used:
Type in all cases: in vivo
[1] = tested on: Common lambsquarters (Chenopodium album L.); assay: Test Example 12: field plot test, growth inhibition; conditions: Example 8 suspension concentrate, 27 days after treatment, field plots; for inhibition at 40 g/ha: Compound A 40 g/ha; for inhibition at 60 g/ha: Compound A 60 g/ha
Text: (§1) In field plots of 3 m² (1 m × 3 m) unit arranged in a duplicate system, seeds of corn, crabgrass (Digitaria sanguinalis L.), green foxtail (Setaria viridis L.), common lambsquarters (Chenopodium album L.), slender amaranth (Amaranthus virdis L.) and velvetleaf (Abutilon theophrasti MEDIC.) were sown and grown. Also, barnyardgrass (Echinochloa crus-galli L.), henbit (Lamiun amplexlcaule L.), pale smartweed (Polygonum lapathifolium L.) and threeseeded copperleaf (Acalypha australis L.) were allowed to grow spontaneously. When the plants grew to certain stages (corn: 6.1 to 6.5-leaf stage, crabgrass: 2.0 to 4.5-leaf stage, green foxtail: 3.0 to 4.5-leaf stage, common lambsquarters: 4.0 to 8.0-leaf stage, slender amaranth: 1.0 to 4.0-leaf stage, velvetleaf: 2.0 to 3.5-leaf stage, barnyardgrass: 3.0 to 4.5-leaf stage, henbit: 2.0 to 5.0 cm, pale smartweed: 3.0 to 5.0-leaf stage and threeseeded copperleaf: 2.0 to 4.0-leaf stage), the oil-based suspension concentrate obtained in Example 8 was diluted with 200 liters/hectare of water containing a predetermined amount of Frigate and was applied foliarly to the plants with a small spray gun.
(§2) Twenty seven days after treatment, the growth inhibition of plants except for corn plants was evaluated with visual observation in the same manner as in Test Example 1 and are shown in Table 12.

[2] = tested on: slender amaranth (Amaranthus virdis L.); assay: as above; conditions: 648 h, Example 8 suspension concentrate, 27 days after treatment, field plots, read-out: Growth Inhibition (%) AV; for inhibition at 40 g/ha: Compound A 40 g/ha; for inhibition at 60 g/ha: Compound A 60 g/ha
Text: as §1, §2

[3] = tested on: henbit (Lamiun amplexlcaule L.); assay: as above; conditions: 648 h, Example 8 suspension concentrate, 27 days after treatment, field plots, read-out: Growth Inhibition (%) LA
Text: as §1, §2

[4] = tested on: Crabgrass (Digitaria sanguinalis L.); assay: as above; conditions: 648 h, Example 8 suspension concentrate, 27 days after treatment, field plots, read-out: Growth Inhibition (%) DS; for inhibition at 40 g/ha: Compound A 40 g/ha; for inhibition at 60 g/ha: Compound A 60 g/ha
Text: as §1, §2

[5] = tested on: Velvetleaf (Abutilon theophrasti MEDIC.); assay: as above; conditions: Example 8 suspension concentrate, 27 days after treatment, field plots; for inhibition at 40 g/ha: Compound A 40 g/ha
Text: as §1, §2

[6] = tested on: pale smartweed (Polygonum lapathifolium L.); assay: as above; conditions: Example 8 suspension concentrate, 27 days after treatment, field plots; for inhibition at 60 g/ha: Compound A 60 g/ha
Text: as §1, §2

corn plants = assay: Test Example 13: field plot test, injury on corn; conditions: Example 8 suspension concentrate, 4 days after treatment, 0 for no injury to 5 for severe injure
Text: In field plots of 4 m² (1 m × 4 m) unit arranged in a duplicate system, seeds of corn, crabgrass (Digitaria sanguinalis L.) common lambsquarters (Chenopodium album L.), slender amaranth (Amaranthus viridis L.), velvetleaf (Abutilon theophrasti MEDIC.) and common cocklebur (Xanthium strumarium L.) were sown and grown. Also, green foxtail (Setaria viridis L.) and barnyardgrass (Echinochloa crus-galli L.) were allowed to grow spontaneously. When the plants grew to certain stages (corn: 4.2 to 6.0-leaf stage, crabgrass: 3.2 to 5.0-leaf stage, common lambsquarters: 3.0 to 6.0-leaf stage, slender amaranth: 2.0 to 5.0-leaf stage, velvetleaf: 1.5 to 4.0-leaf stage, common cocklebur: cotyledonal to 3.5-leaf stage, green foxtail: 3.0 to 5.0-leaf stage and barnyardgrass: 3.0 to 5.0-leaf stage), the oil-based suspension concentrate obtained in Example 8 was diluted with 200 liters/hectare of water containing a predetermined amount of Frigate and was applied foliarly to the plants with a small spray gun.
On the other hand, 4 days after treatment, corn plants were examined for condition of injury (degree of discoloration and yellowing) with visual observation and the results are also shown in Table 13 (0 for no injury to 5 for severe injure).

[7] = tested on: Crabgrass (Digitaria sanguinalis L.); assay: Test Example 7: pot test, Example 8 suspension concentrate with Frigate; conditions: 20 days after treatment, duplicate; for inhibition at 5 g/ha / inhibition at 10 g/ha / inhibition at 20 g/ha / inhibition at 40 g/ha: Digitaria sanguinalis, 480 h, read-out: Growth Inhibition (%) of Crabgrass; for inhibition at 20 g/ha: Compound A 20 g/ha; for inhibition at 40 g/ha: Compound A 40 g/ha
Description: Crabgrass (Digitaria sanguinalis L.) seeds were sown in 1/1,000,000-hectare pots filled with upland soil and arranged in a duplicate system. When the crabgrass plants grew to a 3- to 3.3-leaf stage, the oil-based suspension concentrate obtained in Example 8 was diluted with 500 liters/hectare of water containing a predetermined amount of Frigate and was applied foliarly to the plants with a small spray gun.
Twenty days after treatment, the growth inhibition of plants was evaluated with visual observation in the same manner as in Teat Example 1 and are shown in Table 7.

[8] = Chenopodium album, 648 h, Frigate 0.2 % by volume, read-out: Growth Inhibition (%) CA
[9] = Chenopodium album, 648 h, Frigate: No addition, read-out: Growth Inhibition (%) CA
[10] = Frigate 0.2 % by volume, Compound A 20 g/ha
[11] = Frigate 0.2 % by volume, Compound A 30 g/ha
[12] = Frigate 0.2 % by volume, Compound A 40 g/ha
[13] = Frigate: No addition, Compound A 40 g/ha
[14] = Frigate 0.125 % by volume, Compound A 5 g/ha

COc1cc(OC)nc(NC(=O)NS(=O)(=O)c2ncccc2C(=O)N(C)C)n1 [Compound A, N-[(4,6-dimethoxypyrimidin-2-yl)aminocarbonyl]-3-dimethylaminocarbonyl-2-pyridinesulfonamide]
inhibition at 20 g/ha ([1]; Chenopodium album, 648 h, Frigate 0.2 % by volume, Compound A 20 g/ha, read-out: Growth Inhibition (%) CA): 80%
inhibition at 30 g/ha ([1]; Chenopodium album, 648 h, Frigate 0.2 % by volume, Compound A 30 g/ha, read-out: Growth Inhibition (%) CA): 80%
inhibition at 40 g/ha [1, 8]: 95%
inhibition at 60 g/ha [1, 8]: 99%
inhibition at 40 g/ha [1, 9]: 40%
inhibition at 60 g/ha [1, 9]: 50%
Growth Inhibition (%) CA [1, 10]: 75%
inhibition at 20 g/ha [2, 10]: 100%
inhibition at 30 g/ha [2, 11]: 99%
inhibition at 40 g/ha ([2]; Frigate 0.2 % by volume): 99%
inhibition at 60 g/ha ([2]; Frigate 0.2 % by volume): 99%
inhibition at 40 g/ha ([2]; Frigate: No addition): 99%
inhibition at 60 g/ha ([2]; Frigate: No addition): 99%
inhibition at 20 g/ha [3, 10]: 98%
inhibition at 30 g/ha [3, 11]: 98%
inhibition at 40 g/ha [3, 12]: 98%
inhibition at 60 g/ha ([3]; Frigate: No addition, Compound A 60 g/ha): 98%
inhibition at 20 g/ha [4, 10]: 90%
inhibition at 30 g/ha [4, 11]: 95%
inhibition at 40 g/ha ([4]; Frigate 0.2 % by volume): 95%
inhibition at 60 g/ha ([4]; Frigate 0.2 % by volume): 99%
inhibition at 40 g/ha ([4]; Frigate: No addition): 95%
inhibition at 60 g/ha ([4]; Frigate: No addition): 98%
inhibition at 20 g/ha ([5]; Abutilon theophrasti, 648 h, Frigate 0.2 % by volume, Compound A 20 g/ha): 75%
inhibition at 30 g/ha ([5]; Abutilon theophrasti, 648 h, Frigate 0.2 % by volume, Compound A 30 g/ha): 80%
inhibition at 40 g/ha ([5]; Abutilon theophrasti, 648 h, Frigate 0.2 % by volume): 80%
inhibition at 60 g/ha ([5]; Abutilon theophrasti, 648 h, Frigate 0.2 % by volume, Compound A 60 g/ha): 95%
inhibition at 40 g/ha ([5]; Abutilon theophrasti, 648 h, Frigate: No addition): 70%
inhibition at 60 g/ha ([5]; Abutilon theophrasti, 648 h, Frigate: No addition, Compound A 60 g/ha): 65%
Growth Inhibition (%) AT ([5]; Frigate 0.2 % by volume, Compound A 60 g/ha): 100%
Growth Inhibition (%) PL [6, 10]: 80%
Growth Inhibition (%) PL [6, 13]: 70%
inhibition at 20 g/ha ([6]; Persicaria lapathifolia, 648 h, Frigate 0.2 % by volume, Compound A 20 g/ha, read-out: Growth Inhibition (%) PL): 100%
inhibition at 30 g/ha ([6]; Persicaria lapathifolia, 648 h, Frigate 0.2 % by volume, Compound A 30 g/ha, read-out: Growth Inhibition (%) PL): 100%
inhibition at 40 g/ha ([6]; Persicaria lapathifolia, 648 h, Frigate 0.2 % by volume, Compound A 40 g/ha, read-out: Growth Inhibition (%) PL): 95%
inhibition at 60 g/ha ([6]; Persicaria lapathifolia, 648 h, Frigate 0.2 % by volume, read-out: Growth Inhibition (%) PL): 98%
inhibition at 40 g/ha ([6]; Persicaria lapathifolia, 648 h, Frigate: No addition, Compound A 40 g/ha, read-out: Growth Inhibition (%) PL): 90%
inhibition at 60 g/ha ([6]; Persicaria lapathifolia, 648 h, Frigate: No addition, read-out: Growth Inhibition (%) PL): 100%
Injury on Corn (corn plants; Frigate 0.1 % by volume, Compound A 30 g/ha): 1.0
Injury on Corn (corn plants; Frigate 0.1 % by volume, Compound A 40 g/ha): 1.0
Injury on Corn (corn plants; [10]): 1.0
Injury on Corn (corn plants; [11]): 1.0 and 1.5
Injury on Corn (corn plants; [12]): 1.5 and 2.0
Injury on Corn (corn plants; Frigate: No addition, Compound A 30 g/ha): 1.0
Injury on Corn (corn plants; [13]): 1.0 and 1.5
Injury on Corn (corn plants; Frigate: No addition, Compound A 50 g/ha): 1.0
inhibition at 5 g/ha [7, 14]: 40%
inhibition at 10 g/ha ([7]; Frigate 0.125 % by volume, Compound A 10 g/ha): 85%
inhibition at 20 g/ha ([7]; Frigate 0.125 % by volume): 90%
inhibition at 40 g/ha ([7]; Frigate 0.125 % by volume): 100%
inhibition at 5 g/ha ([7]; Frigate 0.25 % by volume, Compound A 5 g/ha): 50%
inhibition at 10 g/ha ([7]; Frigate 0.25 % by volume, Compound A 10 g/ha): 95%
inhibition at 20 g/ha ([7]; Frigate 0.25 % by volume): 100%
inhibition at 40 g/ha ([7]; Frigate 0.25 % by volume): 100%
inhibition at 5 g/ha ([7]; Frigate 0.5 % by volume, Compound A 5 g/ha): 75%
inhibition at 10 g/ha ([7]; Frigate 0.5 % by volume, Compound A 10 g/ha): 95%
inhibition at 20 g/ha ([7]; Frigate 0.5 % by volume): 100%
inhibition at 40 g/ha ([7]; Frigate 0.5 % by volume): 98%
inhibition at 5 g/ha ([7]; Frigate: No addition, Compound A 5 g/ha): 0%
inhibition at 20 g/ha ([7]; Frigate: No addition): 70%
inhibition at 40 g/ha ([7]; Frigate: No addition): 85%
Growth Inhibition (%) of Crabgrass [7, 14]: 45%
Growth Inhibition (%) of Crabgrass ([7]; Frigate: No addition, Compound A 10 g/ha): 5%
